# In patent US20200392116A1, “SUBSTITUTED HETEROCYCLES AS c-MYC TARGETING AGENTS” (NORTHWESTERN UNIVERSITY, priority 2019, published 2020):
# Assay: Potency code of Table 2 (assay not stated)
smiles,measurement,value
CCc1ccc(Oc2c[nH]nc2-c2ccc(OCc3ccc(Cl)cc3)cc2O)cc1 [NUCC-0176243],Potency code,+ (>40 +)
CCc1ccc(Oc2c[nH]nc2-c2ccc(OCc3ccc(C(F)(F)F)cc3)cc2O)cc1 [NUCC-0176244],Potency code,+ (>40 +)
CCc1ccc(Oc2c(-c3ccc(OCCc4cccc(C(F)(F)F)c4)cc3O)n[nH]c2C(F)(F)F)cc1 [NUCC-0176245],Potency code,++ (30-40 ++)
CCc1ccc(Oc2c[nH]nc2-c2ccc(OCc3cnn(C)c3)cc2O)cc1 [NUCC-0176246],Potency code,+ (>40 +)
Oc1cc(OCc2ccc(Cl)cc2)ccc1-c1n[nH]cc1Oc1ccccc1 [NUCC-0176247],Potency code,+ (>40 +)
Cc1[nH]nc(-c2ccc(OCc3cnn(C)c3)cc2O)c1Oc1ccccc1 [NUCC-0176249],Potency code,+ (>40 +)
Oc1cc(OCc2ccncc2)ccc1-c1n[nH]cc1Oc1ccccc1 [NUCC-0176251],Potency code,+ (>40 +)
Cc1[nH]nc(-c2ccc(OCCc3ccc(Cl)cc3)cc2O)c1Oc1ccccc1 [NUCC-0176252],Potency code,+ (>40 +)
Cc1[nH]nc(-c2ccc(OCc3ccc(Cl)cc3)cc2O)c1Oc1ccccc1 [NUCC-0176253],Potency code,+ (>40 +)
CCc1ccc(Oc2c[nH]nc2-c2ccc(OCc3ccncc3)cc2O)cc1 [NUCC-0176254],Potency code,+ (>40 +)
Oc1cc(OCc2ccccc2)ccc1-c1n[nH]cc1Oc1ccccc1 [NUCC-0176255],Potency code,+ (>40 +)
CCc1ccc(Oc2c[nH]nc2-c2ccc(OCC3CCCCC3)cc2O)cc1 [NUCC-0176256],Potency code,+ (>40 +)
CCc1ccc(Oc2c[nH]nc2-c2ccc(OCc3ccc(F)cc3)cc2O)cc1 [NUCC-0176257],Potency code,+ (>40 +)
CCc1ccc(Oc2c[nH]nc2-c2ccc(OCCc3ccc(F)cc3)cc2O)cc1 [NUCC-0176258],Potency code,+ (>40 +)
Cc1[nH]nc(-c2ccc(OCc3ccc(F)cc3)cc2O)c1Oc1ccccc1 [NUCC-0176259],Potency code,+ (>40 +)
CCc1ccc(Oc2cn(C)nc2-c2ccc(OCc3ccc(Cl)cc3)cc2O)cc1 [NUCC-0176260],Potency code,+ (>40 +)
CCc1ccc(Oc2c[nH]nc2-c2ccc(OCCc3ccc(Cl)cc3)cc2O)cc1 [NUCC-0176261],Potency code,+ (>40 +)
CCc1ccc(Oc2c(-c3ccc(OCc4ccc(Cl)cc4)cc3O)n[nH]c2CC)cc1 [NUCC-0196282],Potency code,+ (>40 +)
COc1ccc(-c2c(-c3ccc(OCc4ccc(Cl)cc4)cc3O)n[nH]c2C(F)(F)F)cc1OC [NUCC-0196283],Potency code,++++ (<10 ++++)
Cc1ccc(C)c(Oc2c[nH]nc2-c2ccc(OCc3ccc(Cl)cc3)cc2O)c1 [NUCC-0196284],Potency code,+ (>40 +)
Cc1ccc(C)c(Oc2cn(C)nc2-c2ccc(OCc3ccc(Cl)cc3)cc2O)c1 [NUCC-0196285],Potency code,+ (>40 +)
Cc1ccc(C)c(Oc2c[nH]nc2-c2ccc(OCc3cccc(Cl)c3)cc2O)c1 [NUCC-0196286],Potency code,+ (>40 +)
Cc1ccc(C)c(Oc2cn(C)nc2-c2ccc(OCc3cccc(Cl)c3)cc2O)c1 [NUCC-0196287],Potency code,+ (>40 +)
COc1cccc(COc2ccc(-c3n[nH]cc3Oc3cc(C)ccc3C)c(O)c2)c1 [NUCC-0196288],Potency code,+ (>40 +)
COc1cccc(COc2ccc(-c3nn(C)cc3Oc3cc(C)ccc3C)c(O)c2)c1 [NUCC-0196289],Potency code,+ (>40 +)
Cc1ccc(C)c(Oc2c[nH]nc2-c2ccc(OCc3ccc4ccccc4c3)cc2O)c1 [NUCC-0196290],Potency code,+ (>40 +)
Cc1ccc(C)c(Oc2cn(C)nc2-c2ccc(OCc3ccc4ccccc4c3)cc2O)c1 [NUCC-0196291],Potency code,+ (>40 +)
CCc1ccc(Oc2c(-c3ccc(OCc4ccc(Cl)cc4)cc3O)nn(C)c2CC)cc1 [NUCC-0196294],Potency code,+ (>40 +)
CCc1ccc(Oc2c(-c3ccc(OCc4cccc(Cl)c4)cc3O)nn(C)c2C(F)(F)F)cc1 [NUCC-0196296],Potency code,+ (>40 +)
CCc1ccc(Oc2c(-c3ccc(OCc4cccc(OC)c4)cc3O)n[nH]c2C(F)(F)F)cc1 [NUCC-0196297],Potency code,+ (>40 +)
CCc1ccc(Oc2c(-c3ccc(OCc4cccc(OC)c4)cc3O)nn(C)c2C(F)(F)F)cc1 [NUCC-0196298],Potency code,++ (30-40 ++)
Cc1ccc(C)c(Oc2cn(C)nc2-c2ccc(OCCN3CCCCC3)cc2O)c1 [NUCC-0196299],Potency code,+ (>40 +)
Oc1cc(OCc2ccc(Cl)cc2)ccc1-c1n[nH]c(C(F)(F)F)c1Oc1cccc(F)c1 [NUCC-0196301],Potency code,+ (>40 +)
Cn1nc(-c2ccc(OCc3ccc(Cl)cc3)cc2O)c(Oc2cccc(F)c2)c1C(F)(F)F [NUCC-0196302],Potency code,+ (>40 +)
Oc1cc(OCc2ccc(Cl)cc2)ccc1-c1n[nH]cc1Oc1ccc(Cl)cc1 [NUCC-0196303],Potency code,+ (>40 +)
Cn1nc(-c2ccc(OCc3ccc(Cl)cc3)cc2O)c(Oc2ccccc2Cl)c1C(F)(F)F [NUCC-0196304],Potency code,+++ (10-30 +++)
Cn1cc(Oc2ccccc2Cl)c(-c2ccc(OCc3ccc(Cl)cc3)cc2O)n1 [NUCC-0196305],Potency code,++++ (<10 ++++)
COc1ccc(-c2c(-c3ccc(OCc4ccc(Cl)cc4)cc3O)noc2C(F)(F)F)cc1OC [NUCC-0196306],Potency code,+ (>40 +)
COc1ccc(-c2c(-c3ccc(OCc4ccc(Cl)cc4)cc3O)nn(C)c2C(F)(F)F)cc1OC [NUCC-0196311],Potency code,+ (>40 +)
COc1ccc(-c2c(-c3ccc(OCc4ccc(Cl)cc4)cc3O)n[nH]c2C(F)(F)F)cc1 [NUCC-0196312],Potency code,+ (>40 +)
Oc1cc(OCc2ccc(Cl)cc2)ccc1-c1cc(C(F)(F)F)[nH]n1 [NUCC-0196313],Potency code,++++ (<10 ++++)
Cn1nc(-c2ccc(OCc3ccc(Cl)cc3)cc2O)cc1C(F)(F)F [NUCC-0196314.2],Potency code,+ (>40 +)
COc1ccc(-c2c(-c3ccc(OCc4ccc(Cl)cc4)cc3O)nn(C)c2C(F)(F)F)cc1 [NUCC-0196340],Potency code,++ (30-40 ++)
Cn1nc(-c2ccc(OCCN3CCOCC3)cc2O)c(Oc2ccccc2Cl)c1C(F)(F)F [NUCC-0196341],Potency code,+ (>40 +)
Oc1cc(OCc2ccc(Cl)cc2)ccc1-c1n[nH]cc1Oc1ccccc1Cl [NUCC-0196343],Potency code,+ (>40 +)
Cc1ccc(-c2c(OCc3ccc(Cl)cc3)ccc(-c3cc(C(F)(F)F)[nH]n3)c2O)cc1 [NUCC-0196344],Potency code,+++ (10-30 +++)
Cc1ccc(-c2c[nH]nc2-c2ccc(OCc3ccc(Cl)cc3)cc2O)cc1 [NUCC-0196345],Potency code,+ (>40 +)
Cc1ccc(-c2cn(C)nc2-c2ccc(OCc3ccc(Cl)cc3)cc2O)cc1 [NUCC-0196346],Potency code,+ (>40 +)
Oc1c(-c2cc(C(F)(F)F)[nH]n2)ccc(OCc2ccc(Cl)cc2)c1-c1ccc(F)cc1 [NUCC-0196347],Potency code,+ (>40 +)
Cn1nc(-c2ccc(OCc3ccc(Cl)cc3)c(-c3ccc(F)cc3)c2O)cc1C(F)(F)F [NUCC-0196348],Potency code,+++ (10-30 +++)
Cn1cc(-c2ccc(F)cc2)c(-c2ccc(OCc3ccc(Cl)cc3)cc2O)n1 [NUCC-0196349],Potency code,+ (>40 +)
Oc1cc(OCc2ccc(Cl)cc2)ccc1-c1n[nH]cc1-c1cccc(Cl)c1 [NUCC-0196350],Potency code,+++ (10-30 +++)
Cn1cc(-c2cccc(Cl)c2)c(-c2ccc(OCc3ccc(Cl)cc3)cc2O)n1 [NUCC-0196351],Potency code,+ (>40 +)
CCc1ccc(Oc2c(-c3ccc(OCc4ccc(Cl)cc4)cc3OC)nn(C)c2C(F)(F)F)cc1 [NUCC-0196352],Potency code,+ (>40 +)
CCc1ccc(Oc2c(-c3ccc(OCc4ccc(Cl)cc4)cc3)nn(C)c2C(F)(F)F)cc1 [NUCC-0196353],Potency code,+ (>40 +)
CCc1ccc(Oc2c(-c3ccc(OCc4ccc(Cl)c(Cl)c4)cc3O)nn(C)c2C(F)(F)F)cc1 [NUCC-0196354],Potency code,+ (>40 +)
CCc1ccc(Oc2c(-c3ccc(OCc4ccc(Cl)c(Cl)c4)cc3O)n[nH]c2C(F)(F)F)cc1 [NUCC-0196355],Potency code,+++ (10-30 +++)
CCc1ccc(Oc2c(-c3ccc(OCCc4ccc(Cl)cc4)cc3O)nn(C)c2C(F)(F)F)cc1 [NUCC-0196356],Potency code,+ (>40 +)
CCc1ccc(Oc2c(-c3ccc(OCCc4ccc(Cl)cc4)cc3O)n[nH]c2C(F)(F)F)cc1 [NUCC-0196357],Potency code,+++ (10-30 +++)
CCc1ccc(Oc2c(-c3ccc(OCc4ccc(OC)cc4)cc3O)nn(C)c2C(F)(F)F)cc1 [NUCC-0196358],Potency code,+ (>40 +)
CCc1ccc(Oc2c(-c3ccc(OCc4ccc(OC)cc4)cc3O)n[nH]c2C(F)(F)F)cc1 [NUCC-0196359],Potency code,+ (>40 +)
Cn1nc(-c2ccc(OCc3ccc(Cl)cc3)c(-c3cc(C(F)(F)F)cc(C(F)(F)F)c3)c2O)cc1C(F)(F)F [NUCC-0196360],Potency code,+ (>40 +)
Oc1c(-c2cc(C(F)(F)F)[nH]n2)ccc(OCc2ccc(Cl)cc2)c1-c1cc(C(F)(F)F)cc(C(F)(F)F)c1 [NUCC-0196362],Potency code,++ (30-40 ++)
Cn1nc(-c2ccc(OCc3ccc(Cl)cc3)c(-c3cccnc3)c2O)cc1C(F)(F)F [NUCC-0196364],Potency code,+ (>40 +)
Cn1nc(C(F)(F)F)cc1-c1ccc(OCc2ccc(Cl)cc2)c(-c2cccnc2)c1O [NUCC-0196365],Potency code,+ (>40 +)
Oc1c(-c2cc(C(F)(F)F)[nH]n2)ccc(OCc2ccc(Cl)cc2)c1-c1cccnc1 [NUCC-0196366],Potency code,+ (>40 +)
Oc1cc(OCc2ccc(Cl)cc2)ccc1-c1n[nH]cc1-c1ccccc1 [NUCC-0198293],Potency code,+ (>40 +)
Cn1cc(-c2ccccc2)c(-c2ccc(OCc3ccc(Cl)cc3)cc2O)n1 [NUCC-0198294],Potency code,+ (>40 +)
Oc1cc(OCc2ccc(Cl)cc2)ccc1-c1n[nH]c(C(F)(F)F)c1-c1ccccc1 [NUCC-0198295],Potency code,++++ (<10 ++++)
Cn1nc(C(F)(F)F)c(-c2ccccc2)c1-c1ccc(OCc2ccc(Cl)cc2)cc1O [NUCC-0198296],Potency code,+ (>40 +)
Cn1nc(-c2ccc(OCc3ccc(Cl)cc3)cc2O)c(-c2ccccc2)c1C(F)(F)F [NUCC-0198297],Potency code,+ (>40 +)
Cc1[nH]nc(-c2ccc(OCc3ccc(Cl)cc3)cc2O)c1-c1ccccc1 [NUCC-0198298],Potency code,+ (>40 +)
Cc1nn(C)c(-c2ccc(OCc3ccc(Cl)cc3)cc2O)c1-c1ccccc1 [NUCC-0198299],Potency code,+ (>40 +)
Cc1c(-c2ccccc2)c(-c2ccc(OCc3ccc(Cl)cc3)cc2O)nn1C [NUCC-0198300],Potency code,+ (>40 +)
